Experimental data from PubChem BioAssay AID256 (DTP/NCI, 2004).
Where “and” joins values, the source holds several entries; their conditions need not be identical. Equal values may be shown once. Inconclusive results and toxic doses are left out.

Test system: CD2F1 mice, L1210 leukemia ip, survival T/C
Experiment: NCI In Vivo Anticancer Drug Screen. Data for tumor model L1210 Leukemia (intraperitoneal) in CD2F1 (CDF1) mice
Conditions: higher = longer survival
How it was run: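 Vehicle-treated tumor-bearing mice served as controls (C) for compound-treated mice (T). Reported figure is T divided by C.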

[1] = endpoint: mean survival time, dose: 100.0 mg/kg/injection, schedule: Q01DX009 (ip), vehicle: saline with Tween-80
[2] = endpoint: mean survival time, dose: 100.0 mg/kg/injection, schedule: Q04DX003 (ip), vehicle: saline with Tween-80
[3] = endpoint: mean survival time, dose: 200.0 mg/kg/injection, schedule: Q01DX009 (ip), vehicle: saline with Tween-80
[4] = endpoint: mean survival time, dose: 200.0 mg/kg/injection, schedule: Q04DX003 (ip), vehicle: saline with Tween-80
[5] = endpoint: mean survival time, dose: 400.0 mg/kg/injection, schedule: Q01DX009 (ip), vehicle: saline with Tween-80
[6] = endpoint: mean survival time, dose: 400.0 mg/kg/injection, schedule: Q04DX003 (ip), vehicle: saline with Tween-80

| Structure (SMILES) | T/C [1] | T/C [2] | T/C [3] | T/C [4] | T/C [5] | T/C [6] | also measured |
| --- | --- | --- | --- | --- | --- | --- | --- |
| O=C(C(=O)N1CC2C=CC1C2)c1c[nH]c2ccccc12 (stereo not drawn) | 101 % of control | 102 % of control | 97 % of control | 97 % of control | 101 % of control | 92 % of control | – |
| O=S(=O)(O)O.[NH-]C1CCCCC1C1CCCCC1[NH-].[Pt+2] (stereo not drawn) | – | – | – | – | – | – | T/C (endpoint: mean survival time, dose: 3.12 mg/kg/injection, schedule: Q04DX003 (ip), vehicle: distilled water + Tween-80): 119 % of control; T/C (endpoint: mean survival time, dose: 12.5 mg/kg/injection, schedule: Q04DX003 (ip), vehicle: distilled water + Tween-80): 156 % of control |
| COc1ccccc1NC(=O)Oc1ccccc1-c1ccccc1 | 93 % of control | – | – | – | – | – | T/C (endpoint: mean survival time, dose: 25.0 mg/kg/injection, schedule: Q01DX009 (ip), vehicle: saline with Tween-80): 93 % of control; T/C (endpoint: mean survival time, dose: 25.0 mg/kg/injection, schedule: Q04DX002 (ip), vehicle: saline with Tween-80): 98 % of control; T/C (endpoint: mean survival time, dose: 50.0 mg/kg/injection, schedule: Q01DX009 (ip), vehicle: saline with Tween-80): 93 % of control; T/C (endpoint: mean survival time, dose: 50.0 mg/kg/injection, schedule: Q04DX002 (ip), vehicle: saline with Tween-80): 110 % of control; T/C (endpoint: mean survival time, dose: 100.0 mg/kg/injection, schedule: Q04DX002 (ip), vehicle: saline with Tween-80): 87 % of control and 104 % of control |
| O=C1c2ccccc2-c2cc([N+](=O)[O-])c(Cl)cc21 | – | – | – | – | – | – | T/C (endpoint: mean survival time, dose: 50.0 mg/kg/injection, schedule: Q04DX003 (ip), vehicle: Klucel (hydroxypropylcellulose) (HPC)): 91 % of control; T/C (endpoint: mean survival time, dose: 100.0 mg/kg/injection, schedule: Q04DX003 (ip), vehicle: Klucel (hydroxypropylcellulose) (HPC)): 96 % of control; T/C (endpoint: mean survival time, dose: 200.0 mg/kg/injection, schedule: Q04DX003 (ip), vehicle: Klucel (hydroxypropylcellulose) (HPC)): 94 % of control |
| Nc1nccc(N2CCCCC2)n1 | – | – | – | – | – | – | T/C (endpoint: mean survival time, dose: 6.25 mg/kg/injection, schedule: Q04DX003 (ip), vehicle: saline with Tween-80): 100 % of control; T/C (endpoint: mean survival time, dose: 12.5 mg/kg/injection, schedule: Q04DX003 (ip), vehicle: saline with Tween-80): 100 % of control; T/C (endpoint: mean survival time, dose: 25.0 mg/kg/injection, schedule: Q04DX003 (ip), vehicle: saline with Tween-80): 97 % of control |
| Clc1ccccc1/C=C1\c2ccccc2-c2nc3ccccc3nc21 | – | 109 % of control | – | 103 % of control | – | 97 % of control | – |
| Cc1c(Cl)c(Cl)c(Cl)c(Cl)c1Cl | 93 % of control | – | 93 % of control | – | 92 % of control | – | – |
| CCC1(OC(=O)CN)C(=O)OCc2c1cc1n(c2=O)Cc2cc3ccccc3nc2-1 (stereo not drawn) | – | – | – | – | – | – | T/C (endpoint: median survival time, dose: 7.5 mg/kg/injection, schedule: Q04DX002 (ip), vehicle: saline): 117 % of control and 122 % of control; T/C (endpoint: median survival time, dose: 7.5 mg/kg/injection, schedule: Q04HX004 (iv), vehicle: dextrose): 175 % of control; T/C (endpoint: median survival time, dose: 7.5 mg/kg/injection, schedule: Q04HX004 (iv), vehicle: other): 186 % of control; T/C (endpoint: median survival time, dose: 15.0 mg/kg/injection, schedule: Q04HX004 (iv), vehicle: dextrose): 172 % of control; T/C (endpoint: median survival time, dose: 15.0 mg/kg/injection, schedule: Q04HX004 (iv), vehicle: other): 204 % of control; T/C (endpoint: median survival time, dose: 30.0 mg/kg/injection, schedule: Q04DX002 (ip), vehicle: saline): 191 % of control and 213 % of control; T/C (endpoint: median survival time, dose: 30.0 mg/kg/injection, schedule: Q04HX004 (iv), vehicle: dextrose): 226 % of control; T/C (endpoint: median survival time, dose: 30.0 mg/kg/injection, schedule: Q04HX004 (iv), vehicle: other): 219 % of control; T/C (endpoint: median survival time, dose: 40.0 mg/kg/injection, schedule: Q04HX004 (iv), vehicle: other): 217 % of control |
| C#CCN(CC#C)C(=O)CCCCCCCCC=C | 90 % of control | 107 % of control | 93 % of control | 92 % of control | 93 % of control | 98 % of control | – |
| O=C1OC(c2ccccc2)(c2ccccn2)c2ccccc21 (stereo not drawn) | – | 90 % of control | – | 88 % of control | – | 91 % of control | – |
| COC(=O)c1cc2ccccc2cc1OC | 102 % of control | 95 % of control | 109 % of control | 97 % of control | 101 % of control | 97 % of control | – |
| COC(=O)C1C2C=CC(C2)C1C(=O)O (stereo not drawn) | – | – | – | – | – | – | T/C (endpoint: mean survival time, dose: 100.0 mg/kg/injection, schedule: Q01DX001 (ip), vehicle: saline): 100 % of control; T/C (endpoint: mean survival time, dose: 200.0 mg/kg/injection, schedule: Q01DX001 (ip), vehicle: saline): 98 % of control; T/C (endpoint: mean survival time, dose: 400.0 mg/kg/injection, schedule: Q01DX001 (ip), vehicle: saline): 103 % of control |
